Laboratory results: patent US20230091225A1, “Bifunctional chimeric heterocyclic compounds for targeted degradation of androgen receptors and use thereof” (HINOVA PHARMACEUTICALS INC., priority 2019, published 2023)
Like-named read-outs stand apart in the source and are kept apart here.

Tests used:
androgen receptor (AR) = target: T1, androgen receptor (AR) (Homo sapiens, UniProt P10275); assay: Degradation of androgen receptor (AR) protein in VCaP cells by ELISA; type: cell-based; conditions: for inhibition at 0.1 µM: read-out: % degradation
T1 sequence (P10275 1-920): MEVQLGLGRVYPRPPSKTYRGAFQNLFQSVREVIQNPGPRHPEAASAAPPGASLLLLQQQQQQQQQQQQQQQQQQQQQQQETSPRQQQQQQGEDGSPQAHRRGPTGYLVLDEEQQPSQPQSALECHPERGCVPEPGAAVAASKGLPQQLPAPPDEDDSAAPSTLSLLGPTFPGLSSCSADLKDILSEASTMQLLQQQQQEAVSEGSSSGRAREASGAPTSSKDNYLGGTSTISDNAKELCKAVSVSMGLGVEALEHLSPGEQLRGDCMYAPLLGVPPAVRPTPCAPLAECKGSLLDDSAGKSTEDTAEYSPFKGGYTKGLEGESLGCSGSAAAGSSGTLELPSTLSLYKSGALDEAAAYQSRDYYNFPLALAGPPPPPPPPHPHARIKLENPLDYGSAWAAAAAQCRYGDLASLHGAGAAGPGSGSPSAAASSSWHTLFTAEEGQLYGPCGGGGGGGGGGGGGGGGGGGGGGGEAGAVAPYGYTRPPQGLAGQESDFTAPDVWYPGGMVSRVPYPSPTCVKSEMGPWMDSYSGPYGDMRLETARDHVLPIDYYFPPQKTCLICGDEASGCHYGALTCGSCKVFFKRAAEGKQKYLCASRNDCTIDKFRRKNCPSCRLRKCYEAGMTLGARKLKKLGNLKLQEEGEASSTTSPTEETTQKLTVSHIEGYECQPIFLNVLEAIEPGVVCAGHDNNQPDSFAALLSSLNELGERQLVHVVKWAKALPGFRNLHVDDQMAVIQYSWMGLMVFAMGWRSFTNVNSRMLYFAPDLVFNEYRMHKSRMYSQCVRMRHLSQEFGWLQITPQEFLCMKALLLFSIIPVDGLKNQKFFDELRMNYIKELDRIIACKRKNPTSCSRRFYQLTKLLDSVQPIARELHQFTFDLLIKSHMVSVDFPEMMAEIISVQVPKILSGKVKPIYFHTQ

LNCaP/AR cells = assay: Inhibition of proliferation of LNCaP/AR prostate cancer cells (CCK-8); type: cell-based
[1] = percentage of degraded AR at 100 nM, VCaP cells, 16 h, ELISA
[2] = proliferation of LNCap/AR cells, 6 days, CCK-8, read-out: IC50
[3] = 144 h, proliferation of LNCap/AR cells, 6 days, CCK-8, read-out: IC50

inhibition at 0.1 µM (androgen receptor (AR); [1])	IC50 (LNCaP/AR cells; [3])	Compound	further results
–	–	Cc1ncsc1-c1ccc([C@H](C)NC(=O)[C@@H]2C[C@@H](O)CN2C(=O)[C@@H](NC(=O)COCCOCC#Cc2ccc3c(c2)CN([C@H]2C(C)(C)[C@H](Oc4ccc(C#N)c(Cl)c4)C2(C)C)C3=O)C(C)(C)C)cc1 [Compound 13]	% degradation (androgen receptor (AR); [1]): B (79%-50%); IC50 (LNCaP/AR cells; [2]): < 100 nM
25 to 49%	100 to 500 nM	N#Cc1ccc(O[C@H]2CC[C@H](N3Cc4nc(N5CC[C@@H](CN6CCN(c7cc8c(cc7F)C(=O)N(C7CCC(=O)NC7=O)C8)CC6)C5)ccc4C3=O)CC2)cc1Cl (some centres unmarked) [Compound 55]	–
50 to 79%	< 100 nM	Cc1ncsc1-c1ccc([C@H](C)NC(=O)[C@@H]2C[C@@H](O)CN2C(=O)[C@@H](NC(=O)COCCCN2CCN(c3ccc4c(c3)CN(C3C(C)(C)C(Oc5ccc(C#N)c(Cl)c5)C3(C)C)C4=O)CC2)C(C)(C)C)cc1 (some centres unmarked) [Compound 31]	–
< 25%	> 1000 nM	[2H]C([2H])([2H])N(C(=O)c1ccc(N2CCC(CN3CCN(c4cc5c(cc4F)CN(C4CCC(=O)NC4=O)C5=O)CC3)CC2)nc1)[C@H]1C(C)(C)[C@H](Oc2ccc(C#N)c(Cl)c2)C1(C)C (some centres unmarked) [Compound 215, N-((1r,3r)-3-(3-chloro-4-cyanophenoxy)-2,2,4,4-tetramethylcyclobutyl)-6-(4-((4-(2-(2,6-dioxopiperidin-3-yl)-6-fluoro-3-oxoisoindolin-5-yl)piperazin-1-yl)methyl)piperidin-1-yl)-N-(methyl-d3)nicotinamide]	–
> 80%	100 to 500 nM	[2H]C([2H])([2H])N(C(=O)c1ccc(N2CCC(CN3CCN(c4cc5c(cc4F)C(=O)N(C4CCC(=O)NC4=O)C5)CC3)CC2)nc1)[C@H]1C(C)(C)[C@H](Oc2ccc(C#N)c(Cl)c2)C1(C)C (some centres unmarked) [Compound 216, N-((1r,3r)-3-(3-chloro-4-cyanophenoxy)-2,2,4,4-tetramethylcyclobutyl)-6-(4-((4-(2-(2,6-dioxopiperidin-3-yl)-6-fluoro-1-oxoisoindolin-5-yl)piperazin-1-yl)methyl)piperidin-1-yl)-N-(methyl-d3)nicotinamide]	–
–	–	CC(=O)O[C@@H]1C[C@H](C(=O)N[C@H](C)c2ccc(-c3scnc3C)cc2)N(C(=O)[C@H](NC(=O)COCCCCCNc2ccc(C(=O)NC3C[C@]4(C)O[C@@]3(C)[C@@H]3C(=O)N(c5ccc(C#N)c(Cl)c5)C(=O)[C@@H]34)c(F)c2)C(C)(C)C)C1 (stereo partly drawn) [Compound 19, (3S,5R)-1-((2R)-2-(2-((5-((4-(((3aS,4S,7S,7aR)-2-(3-chloro-4-benzonitrile)4,7-dimethyl-1,3-dioxooctahydro-1H-4,7-epoxyisoindolin-5-yl)carbamoyl)-3-fluorophenyl)amino)pentyl)oxy)acetylamino)-3,3-dimethylbutyryl)-5-(((R)-1-(4-(4-methylthiazol-5-yl)phenyl)ethyl)carbamoyl)pyrrolidin-3-yl acetate]	inhibition at 0.1 µM (androgen receptor (AR); VCaP, 16 h): < 25%; IC50 (LNCaP/AR cells; LNCaP/AR, 144 h): < 100 nM
< 25%	< 100 nM	[2H]C([2H])([2H])N(C(=O)c1ccc(C#CCCOCC(=O)N[C@H](C(=O)N2C[C@H](O)C[C@H]2C(=O)N[C@@H](C)c2ccc(-c3scnc3C)cc2)C(C)(C)C)cc1)[C@H]1C(C)(C)[C@H](Oc2ccc(C#N)c(Cl)c2)C1(C)C [Compound 26]	–
–	–	N#Cc1ccc(O[C@H]2CC[C@H](N3Cc4nc(N5CCC(CN6CCN(c7ccc8c(c7)C(=O)N(C7CCC(=O)NC7=O)C8=O)CC6)CC5)ccc4C3=O)CC2)cc1Cl (some centres unmarked) [Compound 57]	% degradation (androgen receptor (AR)): D (key: A: >80%; B: 79%-50%; C: 49%-25%; D: <25%); IC50 (LNCaP/AR cells): > 1000 nM
< 25%	> 1000 nM	N#Cc1ccc(O[C@H]2CC[C@H](N3Cc4nc(N5CCC(CN6CCN(c7cc8c(cc7F)CN(C7CCC(=O)NC7=O)C8=O)CC6)CC5)ccc4C3=O)CC2)cc1Cl (some centres unmarked) [Compound 203]	–
0%	100 to 500 nM	[2H]C([2H])([2H])N(C(=O)c1ccc(C#CCCCCOCC(=O)N[C@H](C(=O)N2C[C@H](O)C[C@H]2C(=O)N[C@@H](C)c2ccc(-c3scnc3C)cc2)C(C)(C)C)nc1)[C@H]1C(C)(C)[C@H](Oc2ccc(C#N)c(Cl)c2)C1(C)C [Compound 33]	–
–	–	(2S,4R)-1-((S)-2-(4-(4-((2-((1r,3r)-3-(3-chloro-4-cyanophenoxy)-2,2,4,4-tetramethylcyclobutyl)-1-oxoisoindolin-5-yl)ethynyl)-1H-pyrazol-1-yl)butylamino)-3,3-dimethylbutanol)-4-hydroxy-N-((S)-1-(4-methylthiazol-5-yl)phenyl)ethyl)pyrrolidine-2-carboxamide [Compound 35]	% degradation (androgen receptor (AR)): B (key: A: >80%; B: 79%-50%; C: 49%-25%; D: <25%); IC50 (LNCaP/AR cells; [2]): < 100 nM
> 80%	< 100 nM	Cc1ncsc1-c1ccc(C2(NC(=O)[C@H]3C[C@@H](O)CN3C(=O)[C@@H](NC(=O)COCCCCC#Cc3ccc(C(=O)N[C@H]4C(C)(C)[C@H](Oc5ccc(C#N)c(Br)c5)C4(C)C)cc3)C(C)(C)C)CC2)cc1 [Compound 9, (2R,4R)-1-((S)-2-(2-((6-(4-(((1R,3R)-3-(3-bromo-4-cyanophenoxy)-2,2,4,4-tetramethylcyclobutyl)carbamoyl)phenyl)hex-5-yn-1-yl)oxy)acetylamino)-3,3-dimethylbutyryl)-4-hydroxy-N-(1-(4-(4-methyl-5-yl)phenyl)cyclopropyl) pyrrolidine-2-carboxamide]	–
25 to 49%	< 100 nM	[2H]C([2H])([2H])N(C(=O)c1ccc(C#CCCCNC(=O)C2(C(=O)N[C@H](C(=O)N3C[C@H](O)C[C@H]3C(=O)N[C@@H](C)c3ccc(-c4scnc4C)cc3)C(C)(C)C)CC2)cc1)[C@H]1C(C)(C)[C@H](Oc2ccc(C#N)c(Cl)c2)C1(C)C [Compound 28]	–
25 to 49%	> 1000 nM	CC1(C)[C@H](NC(=O)c2ccc(N3CCC(CN4CCN(c5cc6c(cc5F)C(=O)N(C5CCC(=O)NC5=O)C6)CC4)CC3)nc2)C(C)(C)[C@H]1Oc1ccc(C#N)c(Cl)c1 (some centres unmarked) [Compound 213]	–
–	–	(2S,4R)-1-((S)-2-(2-(4-(3-(2((1s,3s)-3-(3-chloro-4-cyanophenoxy)-2,2,4,4-tetramethylcyclobutyl)-1-oxoisoindolin-5-yl)prop-2-yn-1-yl)piperidin-1-yl)acetylamino)-3,3-dimethylbutyryl)-4-hydroxy-N-((S)-1-(4-(4-methylthiazol-5-yl)phenyl)ethyl)pyrrolidine-2-carboxamide [Compound 39]	% degradation (androgen receptor (AR)): C (key: A: >80%; B: 79%-50%; C: 49%-25%; D: <25%); IC50 (LNCaP/AR cells; [2]): < 100 nM
–	–	Cc1ncsc1-c1ccc([C@H](C)NC(=O)[C@@H]2C[C@@H](O)CN2C(=O)[C@@H](NC(=O)Cn2cc(C#Cc3ccc4c(c3)CN(C3C(C)(C)C(Oc5ccc(C#N)c(Cl)c5)C3(C)C)C4=O)cn2)C(C)(C)C)cc1 (some centres unmarked) [Compound 11]	% degradation (androgen receptor (AR); [1]): B (79%-50%); IC50 (LNCaP/AR cells; [2]): < 100 nM
50 to 79%	< 100 nM	Cc1ncsc1-c1ccc([C@H](C)NC(=O)[C@@H]2C[C@@H](O)CN2C(=O)[C@@H](NC(=O)COCCCCCNc2ccc3c(c2)C(=O)N([C@H]2C(C)(C)[C@H](Oc4ccc(C#N)c(Cl)c4)C2(C)C)C3)C(C)(C)C)cc1 [Compound 7, (2S,4R)-1-((S)-2-(2-((5-((2-((1R,3R)-3-(3-chloro-4-cyanophenoxy)-2,2,4,4-tetramethylcyclobutyl)-3-oxoisoindolin-5-yl)amino)pentyl)oxy)acetylamino)-3,3-dimethylbutyryl)-4-hydroxy-N-((S)-1-(4-(4-methylthiazol-5-yl)phenyl)ethyl) pyrrolidine-2-carboxamide]	–

Compound	inhibition at 0.1 µM (androgen receptor (AR); [1])	IC50 (LNCaP/AR cells; [3])	further results
N#Cc1ccc(O[C@H]2CC[C@H](N3Cc4nc(N5CCC(CN6CCN(c7ccc8c(c7)C(=O)N(C7CCC(=O)NC7=O)C8=O)CC6)CC5)ccc4C3=O)CC2)cc1Cl (some centres unmarked) [Compound 201]	50 to 79%	> 1000 nM	–
CC(=O)O[C@@H]1C[C@@H](C(=O)N[C@@H](C)c2ccc(-c3scnc3C)cc2)N(C(=O)[C@@H](NC(=O)COCC(C)OCC#Cc2ccc3c(c2)CN([C@H]2C(C)(C)[C@H](Oc4ccc(C#N)c(Cl)c4)C2(C)C)C3=O)C(C)(C)C)C1 (stereo partly drawn) [Compound 14, (3R,5S)-1-((2S)-2-(2-(2-((3-(2-((1r,3r)-3-(3-chloro-4-cyanophenoxy)-2,2,4,4-tetramethylcyclobutyl)-1-oxoisoindol-5-yl)prop-2-yn-1-yl)oxy)propoxy)acetylamino)-3,3-dimethylbutyryl)-5-((((S)-1-acetic acid (4-(4-methylthiazol-5-yl)phenyl)ethyl)carbamoyl)pyrrolidin-3-yl acetate]	50 to 79%	–	IC50 (LNCaP/AR cells; LNCaP/AR, 144 h): < 100 nM
